From PubChem BioAssay (NCI)
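Protocol summary: plate cells (96-well), add compound at 5 concentrations, incubate 48 h, interpolate endpoints linearly. The concentration for 50% growth inhibition is given as GI50. Definition used: TGI = concentration required for complete inhibition of growth.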

Tests used:
Test in all cases: DTP human tumour cell line panel, 48 h
SNB-19 CNS = tested on: SNB-19 CNS
SF-295 CNS = tested on: SF-295 CNS
K-562 leukemia = tested on: K-562 leukemia
NCI-H23 lung = tested on: NCI-H23 lung
HOP-62 NSCLC = tested on: HOP-62 NSCLC
SW-620 colon = tested on: SW-620 colon
SN12C renal = tested on: SN12C renal
PC-3 prostate = tested on: PC-3 prostate

| Structure (SMILES) | GI50 (SNB-19 CNS) [µM] | TGI (SNB-19 CNS) [µM] | GI50 (SF-295 CNS) [µM] | TGI (SF-295 CNS) [µM] | GI50 (K-562 leukemia) [µM] | TGI (K-562 leukemia) [µM] | GI50 (NCI-H23 lung) [µM] | TGI (NCI-H23 lung) [µM] | GI50 (HOP-62 NSCLC) [µM] | TGI (HOP-62 NSCLC) [µM] | GI50 (SW-620 colon) [µM] | TGI (SW-620 colon) [µM] | GI50 (SN12C renal) [µM] | TGI (SN12C renal) [µM] | GI50 (PC-3 prostate) [µM] | TGI (PC-3 prostate) [µM] |
| --- | --- | --- | --- | --- | --- | --- | --- | --- | --- | --- | --- | --- | --- | --- | --- | --- |
| COc1ccccc1NC(=O)c1cc2cc(Br)ccc2cc1O | 3.46 | 16.1 | 2.31 | 7.59 | 2.37 | > 100 | 2.19 | 8.71 | 2.38 | 6.86 | 3.12 | 11.1 | 2.73 | 9.64 | 1.83 | 6.79 |
| CC(C)(C)[Si](C)(C)OC1[C@@H](O[Si](C)(C)C(C)(C)C)[C@@H](CNC(=O)NC(=O)C(F)(F)F)O[C@H]1n1cnc2c(NC(=O)Nc3ccccc3)ncnc21 (some centres not stated) |  |  |  |  | 8.16 | 24.7 | 8.77 | 16.6 | 7.41 | 14.1 | 7.53 | 15.7 | 1.96 | 8.22 | 1.82 | 7.91 |
| O=C(Nc1nn2c(-c3cc(C(F)(F)F)cc(C(F)(F)F)c3)nnc2s1)C1CCCC1 | 0.614 | > 100 | 0.286 | 2.01 | 0.488 | > 100 | 0.394 | > 100 | 2.42 | > 29.8 | 1.74 | > 100 | 0.454 | > 36.7 | 0.603 | > 100 |
| COC(=O)c1cc2oc(/C=C3/SC(=S)N(NC(C)=O)C3=O)cc2n1C | 31.6 | > 100 | 18.2 | 65.5 | 24.7 | > 100 | 16.6 | 50.1 | 21.7 | 47.3 | 7.51 | 25.5 | 21.9 | 60.5 | 25.6 | 68.4 |
| Fc1cc(-c2nnc3n2N=C(c2ccc(Cl)cc2)CS3)c(Cl)cc1Cl | 19.1 | 51.1 | 17 | 34.7 | 1.57 | > 100 | 6.67 | 20.8 | 20.1 | 36.4 | 1.55 | 3 | 3.85 | 16.8 | 16.6 | 31.6 |
| Cc1cc2c(cc1C)[n+](=O)c(C(=O)c1ccccc1)c(C(F)F)n2[O-] | 44.2 | > 100 | 7.27 | 42.5 | 10.1 | > 100 | 26.3 | > 100 | 26.4 | > 100 | 21.2 | > 100 | 25.7 | > 100 | 16.1 | > 100 |
| CCCCCCCCCCSC(=N)N (tested in a mixture with another compound) | 4.28 | 18.2 | 3.79 | 14.3 | 1.72 | 5.88 | 11.1 | 25.9 | 11.8 | 27.3 | 2.1 | 4.7 | 6.28 | 21.6 | 5.01 | 20.1 |
| Cc1ccc(NC2=C3CCCCC3OC2=O)cc1 (configuration not stated) | 63.8 | > 100 | 75 | > 100 | 45.1 | > 100 | 60.5 | > 100 | > 100 | > 100 | > 100 | > 100 | 93 | > 100 | 49.7 | > 100 |
| COc1ccc(CN2C(=O)C(Cl)=C(Nc3cccc(C(F)(F)F)c3)C2=O)cc1 | 5.09 | 63.5 | 3.19 | 65.3 | 3.26 | 51.5 | 8.08 | 42.4 | 18.2 | > 100 | 3.61 | 15.7 | 12.4 | 30.8 | 4.61 | 37.3 |
| Nc1nc2[nH]cc(CCc3ccc(C(=O)N[C@@H](CCC(=O)O)C(=O)O)cc3)c2c(=O)[nH]1 |  | > 100 | 0.606 | > 100 |  | > 100 |  | > 100 | 0.724 | > 100 |  | > 100 | 0.737 | > 100 | > 51.9 | > 100 |
